Source: patent publication US12404283B2, “c-MYC mRNA translation modulators and uses thereof in the treatment of cancer” (Anima Biotech Inc., priority 2022, dated 2025)
Structures can show the parent of a compound that is named as a salt.

Tested on: c-Myc
Assay: c-Myc immunofluorescence assay
Type: cell-based, human
Conditions: A549 cells, 24 hours treatment, anti-c-Myc immunofluorescence
In short: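 High-content imaging (20×) of PFA-fixed A549 cells immunostained for c-Myc with DAPI nuclei, after 24 h compound treatment at increasing concentrations. Per-cell c-Myc signal in identified cell regions was plotted against dose and fitted by logistic regression to give EC50.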

Row | Compound | Myc Efficacy (−LogEC50)
1 | CCN(CC)CCCNC(=O)c1ccc2c(c1)sc1nc(-c3cccc(C)c3F)cn12 [compound 143, N-(3-(diethylamino)propyl)-2-(2-fluoro-3-methylphenyl)benzo[d] imidazo[2,1-b]thiazole-7-carboxamide] | ++ (++ ≥5 and <6)
2 | CCN(CC)CCCNC(=O)c1ccc2c(c1)sc1nc(-c3cc(C)ccc3F)cn12 [compound 144, N-(3-(diethylamino)propyl)-2-(2-fluoro-5-methylphenyl)benzo[d] imidazo[2,1-b]thiazole-7-carboxamide] | + (+ >3 and <5)
3 | CCN(CC)CCCNC(=O)c1ccc2c(c1)sc1nc(-c3cccc(C#N)c3)cn12 [compound 145, 2-(3-cyanophenyl)-N-(3-(diethylamino)propyl)benzo [d]imidazo[2,1-b]thiazole-7-carboxamide] | ++ (++ ≥5 and <6)
4 | Cc1cccc(-c2cn3c(n2)sc2cc(C(=O)NCCCN4CCCC4)ccc23)c1 [compound 149, N-(3-(pyrrolidin-1-yl)propyl)-2-(m-tolyl)benzo[d]imidazo[2,1-b]thiazole-7-carboxamide] | ++ (++ ≥5 and <6)
5 | Cc1cccc(-c2cn3c(n2)sc2cc(C(=O)NCCCN4CCCC4=O)ccc23)c1 [compound 150, N-(3-(2-oxopyrrolidin-1-yl)propyl)-2-(m-tolyl)benzo[d]imidazo[2,1-b]thiazole-7-carboxamide] | + (+ >3 and <5)
6 | Cc1cccc(-c2cn3c(n2)sc2cc(C(=O)N[C@H]4C[C@H](N5CCCCC5)C4)ccc23)c1 [compound 151, N-((1r,3r)-3-(piperidin-1-yl)cyclobutyl)-2-(m-tolyl)benzo[d]imidazo[2,1-b]thiazole-7-carboxamide] | + (+ >3 and <5)
7 | CCN(CC)CCCNC(=O)c1ccc2c(c1)sc1nc(-c3cccc(OC)c3)cn12 [compound 152, N-(3-(diethylamino)propyl)-2-(3-methoxyphenyl)benzo[d] imidazo[2,1-b]thiazole-7-carboxamide] | ++ (++ ≥5 and <6)
8 | CCN(CC)CCCNC(=O)c1ccc2c(c1)sc1nc(-c3cccc(-c4ccccc4)c3)cn12 [compound 153, 2-([1,1′-biphenyl]-3-yl)-N-(3-(diethylamino)propyl)benzo [d]imidazo[2,1-b]thiazole-7-carboxamide] | + (+ >3 and <5)
9 | CCN(CC)CCCNC(=O)c1ccc2c(c1)sc1nc(-c3ccc(C(=O)N(C)C)cc3)cn12 [compound 154, N-(3-(diethylamino)propyl)-2-(4-(dimethylcarbamoyl)phenyl) benzo[d]imidazo[2,1-b]thiazole-7-carboxamide formate] | + (+ >3 and <5)
10 | CCNCCCNC(=O)c1ccc2c(c1)sc1nc(-c3cccc(C)c3)cn12 [compound 155] | ++ (++ ≥5 and <6)
11 | Cc1cccc(-c2cn3c(n2)sc2cc(C(=O)NCCC4CCCN4)ccc23)c1 (stereo not shown) [compound 156, N-(2-(pyrrolidin-2-yl)ethyl)-2-(m-tolyl)benzo[d]imidazo[2,1-b]thiazole-7-carboxamide] | ++ (++ ≥5 and <6)
12 | CN[C@H]1C[C@@H](NC(=O)c2ccc3c(c2)sc2nc(-c4cccc(C)c4)cn23)C1 [compound 157, N-((1s,3s)-3-(methylamino)cyclobutyl)-2-(m-tolyl)benzo[d]imidazo[2,1-b]thiazole-7-carboxamide formate] | ++ (++ ≥5 and <6)
13 | CN[C@H]1C[C@H](NC(=O)c2ccc3c(c2)sc2nc(-c4cccc(C)c4)cn23)C1 [compound 158, N-((1r,3r)-3-(methylamino)cyclobutyl)-2-(m-tolyl)benzo[d]imidazo[2,1-b]thiazole-7-carboxamide formate] | ++ (++ ≥5 and <6)
14 | Cc1cccc(-c2cn3c(n2)sc2cc(C(=O)NCCC(=O)N4CCCC4)ccc23)c1 [compound 159, N-(3-oxo-3-(pyrrolidin-1-yl)propyl)-2-(m-tolyl)benzo[d]imidazo[2,1-b]thiazole-7-carboxamide] | + (+ >3 and <5)
15 | CCN(CC)CCCNC(=O)c1ccc2c(c1)sc1nc(-c3ccc(C#N)cc3)cn12 [compound 160, 2-(4-cyanophenyl)-N-(3-(diethylamino)propyl)benzo [d]imidazo[2,1-b]thiazole-7-carboxamide] | + (+ >3 and <5)
16 | CCN(CC)CCCNC(=O)c1ccc2c(c1)sc1nc(-c3ccncc3)cn12 [compound 161, N-(3-(diethylamino)propyl)-2-(pyridin-4-yl)benzo[d]imidazo[2,1-b]thiazole-7-carboxamide] | +++ (+++ ≥6)
17 | CCN(CC)CCCNC(=O)c1ccc2c(c1)sc1nc(N3CCOCC3)cn12 [compound 162, N-(3-(diethylamino)propyl)-2-morpholinobenzo[d]imidazo [2,1-b]thiazole-7-carboxamide] | − (− ≤3)

Row | Compound | Myc Efficacy (−LogEC50)
18 | CCN(CC)CCCNC(=O)c1ccc2c(c1)sc1nc(-c3ccc(CN)cc3)cn12 [compound 163, 2-(4-(aminomethyl)phenyl)-N-(3-(diethylamino)propyl)benzo [d]imidazo[2,1-b]thiazole-7-carboxamide] | +++ (+++ ≥6)
19 | CCN(CC)CCCNC(=O)c1ccc2c(c1)sc1nc(-c3ccc(NC)cc3)cn12 [compound 164, N-(3-(diethylamino)propyl)-2-(4-(methylamino)phenyl)benzo [d]imidazo[2,1-b]thiazole-7-carboxamide] | +++ (+++ ≥6)
20 | CCN(CC)CCCNC(=O)c1ccc2c(c1)sc1nc(-c3cncc(C)c3)cn12 [compound 165, N-(3-(diethylamino)propyl)-2-(5-methylpyridin-3-yl)benzo[d]imidazo[2,1-b]thiazole-7-carboxamide] | + (+ >3 and <5)
21 | CCN(CC)CCCNC(=O)c1ccc2c(c1)sc1nc(-c3ccc(C(=O)NC)cc3F)cn12 [compound 166, N-(3-(diethylamino)propyl)-2-(2-fluoro-4-(methylcarbamoyl)phenyl) benzo[d]imidazo[2,1-b]thiazole-7-carboxamide] | +++ (+++ ≥6)
22 | CCN(CC)CCCNC(=O)c1ccc2c(c1)sc1nc(-c3cccc(C(=O)NC)c3)cn12 [compound 167, N-(3-(diethylamino)propyl)-2-(3-(methylcarbamoyl)phenyl) benzo[d]imidazo[2,1-b]thiazole-7-carboxamide] | + (+ >3 and <5)
23 | Cc1cccc(-c2cn3c(n2)sc2cc(NC(=O)C4CCNCC4)ccc23)c1 [compound 168, N-(2-(m-tolyl)benzo[d]imidazo[2,1-b]thiazol-7-yl)piperidine-4-carboxamide] | ++ (++ ≥5 and <6)
24 | CCN(CC)CCCNC(=O)c1ccc2c(c1)sc1nc(-c3cccc(C(C)C)c3)cn12 [compound 169, N-(3-(diethylamino)propyl)-2-(3-isopropylphenyl)benzo[d] imidazo[2,1-b]thiazole-7-carboxamide] | ++ (++ ≥5 and <6)
25 | CCN(CC)CCCNC(=O)c1ccc2c(c1)sc1nc(-c3cccc(N4CCOCC4)c3)cn12 [compound 170, N-(3-(diethylamino)propyl)-2-(3-morpholinophenyl)benzo[d] imidazo[2,1-b]thiazole-7-carboxamide] | ++ (++ ≥5 and <6)
26 | CCN(CC)CCCNC(=O)c1ccc2c(c1)sc1nc(-c3cccc(N4CCCC4)c3)cn12 [compound 171, N-(3-(diethylamino)propyl)-2-(3-(pyrrolidin-1-yl)phenyl)benzo[d]imidazo [2,1-b]thiazole-7-carboxamide] | ++ (++ ≥5 and <6)
27 | CCN(CC)CCCNC(=O)c1ccc2c(c1)sc1nc(-c3ccc(C(=O)O)cc3)cn12 [compound 172, 4-(7-((3-(diethylamino)propyl)carbamoyl)benzo[d]imidazo [2,1-b]thiazol-2-yl)benzoic acid] | − (− ≤3)
28 | CCN(CC)CCCNC(=O)c1ccc2c(c1)sc1nc(-c3ccc(C4COC4)cc3)cn12 [compound 173, N-(3-(diethylamino)propyl)-2-(4-(oxetan-3-yl)phenyl)benzo[d]imidazo [2,1-b]thiazole-7-carboxamide] | ++ (++ ≥5 and <6)
29 | CNC(=O)c1ccc(-c2cn3c(n2)sc2cc(C(=O)NCCCN4CCCCC4)ccc23)cc1 [compound 174, 2-(4-(methylcarbamoyl)phenyl)-N-(3-(piperidin-1-yl)propyl)benzo[d]imidazo [2,1-b]thiazole-7-carboxamide] | +++ (+++ ≥6)
30 | CNC(=O)c1ccc(-c2cn3c(n2)sc2cc(C(=O)NCCCN4CCNCC4)ccc23)cc1 [compound 175, 2-(4-(methylcarbamoyl)phenyl)-N-(3-(piperazin-1-yl)propyl)benzo[d]imidazo [2,1-b]thiazole-7-carboxamide] | − (− ≤3)
31 | CNC(=O)c1ccc(-c2cn3c(n2)sc2cc(C(=O)NCC4CCN(C)C4)ccc23)cc1 (stereo not shown) [compound 176, 2-(4-(methylcarbamoyl)phenyl)-N-((1-methylpyrrolidin-3-yl)methyl)benzo[d]imidazo [2,1-b]thiazole-7-carboxamide] | − (− ≤3)
32 | CCN(CCCNC(=O)c1ccc2c(c1)sc1nc(-c3cccc(C)c3)cn12)CC(F)(F)F [compound 177, N-(3-(ethyl(2,2,2-trifluoroethyl)amino)propyl)-2-(m-tolyl)benzo[d]imidazo[2,1-b]thiazole-7-carboxamide] | + (+ >3 and <5)
33 | Cc1cccc(-c2cn3c(n2)sc2cc(C(=O)NCCCNCC(F)(F)F)ccc23)c1 [compound 178, 2-(m-tolyl)-N-(3-((2,2,2-trifluoroethyl)amino)propyl) benzo[d]imidazo[2,1-b]thiazole-7-carboxamide] | + (+ >3 and <5)
34 | CCN(CC)CCCNC(=O)c1ccc2c(c1)sc1nc(-c3ccc(N4CCCC4=O)cc3)cn12 [compound 179, N-(3-(diethylamino)propyl)-2-(4-(2-oxopyrrolidin-1-yl)phenyl)benzo[d]imidazo [2,1-b]thiazole-7-carboxamide] | + (+ >3 and <5)
